Measurements: patent publication US20260132129A1 (Genesis Therapeutics, Inc., priority 2022, published 2026)

Molecular target: T1, PI3Kα H1047R (T47D cells) (Homo sapiens, UniProt P42336, H1047R)
T1 construct: endogenous in cells; host or cells: T47D cells
Assay: PI3Kα cellular assay: pAKT HTRF in T47D cells after EGF stimulation
Type: cell-based
Conditions: for IC50: T47D cells (PI3Kα H1047R), pAKT S473 HTRF
Method in brief: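 T47D cells (PIK3CA H1047R) serum-starved 16 h, then treated 1 h at 37 °C with compound (10,000 nM top, 3-fold steps to 0.5 nM). After 10 min stimulation with 20 ng/mL EGF, cells were lysed and pAKT measured by HTRF.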

[1] = selectivity of T47D (H1047R) over SKBR3 (WT) pAKT IC50
[2] = selectivity T47D (H1047R) over SKBR3 (WT), pAKT HTRF
[3] = 1 hr compound, 20 ng/ml EGF 10 min

T1 sequence (P42336 whole entry H1047R): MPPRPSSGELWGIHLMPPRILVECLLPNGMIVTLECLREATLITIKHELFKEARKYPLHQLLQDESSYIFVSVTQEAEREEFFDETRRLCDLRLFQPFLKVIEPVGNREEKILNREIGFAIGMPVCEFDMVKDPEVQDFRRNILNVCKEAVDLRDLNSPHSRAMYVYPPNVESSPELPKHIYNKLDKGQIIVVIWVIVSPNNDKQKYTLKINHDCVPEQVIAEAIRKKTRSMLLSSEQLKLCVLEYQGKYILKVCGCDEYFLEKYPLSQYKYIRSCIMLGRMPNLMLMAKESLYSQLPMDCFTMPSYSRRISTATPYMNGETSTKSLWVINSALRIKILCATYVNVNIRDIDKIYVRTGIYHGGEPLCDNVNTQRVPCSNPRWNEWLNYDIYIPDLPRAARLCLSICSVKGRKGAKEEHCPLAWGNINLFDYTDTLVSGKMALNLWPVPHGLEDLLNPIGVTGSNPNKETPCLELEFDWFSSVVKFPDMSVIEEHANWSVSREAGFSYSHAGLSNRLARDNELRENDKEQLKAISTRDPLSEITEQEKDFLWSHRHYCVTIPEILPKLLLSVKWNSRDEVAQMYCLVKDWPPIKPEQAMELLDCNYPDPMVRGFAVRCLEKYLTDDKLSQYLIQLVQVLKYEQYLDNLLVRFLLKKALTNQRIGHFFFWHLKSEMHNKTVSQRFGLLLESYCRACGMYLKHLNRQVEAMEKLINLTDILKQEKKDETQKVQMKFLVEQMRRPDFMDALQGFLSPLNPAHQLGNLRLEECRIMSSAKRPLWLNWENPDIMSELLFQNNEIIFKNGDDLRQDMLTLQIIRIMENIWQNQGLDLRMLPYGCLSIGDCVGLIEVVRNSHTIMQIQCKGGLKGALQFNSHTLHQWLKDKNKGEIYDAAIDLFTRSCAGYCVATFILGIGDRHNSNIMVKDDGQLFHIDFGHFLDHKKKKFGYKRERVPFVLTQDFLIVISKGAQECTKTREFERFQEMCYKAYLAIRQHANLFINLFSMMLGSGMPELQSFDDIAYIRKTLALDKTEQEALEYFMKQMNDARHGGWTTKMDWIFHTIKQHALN
T1 sequence (P27986 whole entry partner): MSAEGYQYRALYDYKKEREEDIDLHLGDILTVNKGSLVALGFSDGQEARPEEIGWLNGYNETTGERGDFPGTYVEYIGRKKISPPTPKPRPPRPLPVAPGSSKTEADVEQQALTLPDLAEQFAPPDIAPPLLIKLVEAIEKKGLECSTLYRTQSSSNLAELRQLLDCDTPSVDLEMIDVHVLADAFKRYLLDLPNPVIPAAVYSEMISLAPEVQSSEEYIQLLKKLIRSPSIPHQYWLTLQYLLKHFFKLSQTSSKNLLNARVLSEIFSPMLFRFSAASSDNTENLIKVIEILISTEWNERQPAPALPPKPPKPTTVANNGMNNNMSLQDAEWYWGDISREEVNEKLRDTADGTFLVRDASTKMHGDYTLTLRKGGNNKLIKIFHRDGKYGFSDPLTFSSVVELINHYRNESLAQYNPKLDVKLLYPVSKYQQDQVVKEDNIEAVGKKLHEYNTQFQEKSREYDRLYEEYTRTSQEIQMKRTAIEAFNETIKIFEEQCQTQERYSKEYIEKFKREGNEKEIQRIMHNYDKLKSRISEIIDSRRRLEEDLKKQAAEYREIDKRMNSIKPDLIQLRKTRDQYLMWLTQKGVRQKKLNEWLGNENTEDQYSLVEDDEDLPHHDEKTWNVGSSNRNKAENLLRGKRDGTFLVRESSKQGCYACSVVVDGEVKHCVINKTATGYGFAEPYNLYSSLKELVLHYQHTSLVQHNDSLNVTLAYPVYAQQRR

Row | SMILES | IC50 (EGF stimulation) | T47D pAKT S473 HTRF IC50 (H1047R): T47D (H1047R) selectivity over SKBR3 (WT) [1] | T47D pAKT S473 HTRF IC50 (H1047R): T47D (H1047R) selectivity over SKBR3 (WT) [2] | IC50 [3]
1 | Cc1cc(C(C)Nc2ccccc2C(=O)O)c2nc(-c3ccc4c(n3)c(C)nn4C)cc(=O)n2c1 (centres unmarked) [Compound 858] | 100 to 500 nM | A (A denotes >20-fold) | – | –
2 | Cc1cc([C@H](C)Nc2ccccc2C(=O)O)c2nc(-c3ccc4ccnn4c3)c(C)c(=O)n2c1 [Compound 1299] | > 2000 nM | – | C (C denotes ≤5-fold) | –
3 | Cc1cc([C@H](C)Nc2ccccc2-n2nn[nH]c2=O)c2nc(N3CCOCC3)cc(=O)n2c1 [Compound 344] | – | – | C (C denotes ≤5-fold) | > 2000 nM
4 | Cc1cc([C@@H](C)N[C@@H]2CCCC[C@@H]2C(=O)O)c2nc(N3CCOCC3)cc(=O)n2c1 [Compound 905] | > 2000 nM | C (C denotes ≤5-fold) | – | –
5 | Cc1cc([C@@H](C)Nc2ccccc2C(=O)O)c2nc(N3CCS(=O)(=O)CC3)cc(=O)n2c1 [Compound 138] | – | – | C (C denotes ≤5-fold) | > 2000 nM
6 | C=CC(=O)Nc1ccc(C(=O)O)c(NC(C)c2cc(C)cn3c(=O)c(C)c(N4Cc5ccccc5C4)nc23)c1 (centres unmarked) [Compound 1039] | > 2000 nM | C (C denotes ≤5-fold) | – | –
7 | Cc1cc([C@H](C)Nc2ccccc2C(=O)O)c2nc(N3CCCCC3)cc(=O)n2c1 [Compound 8] | – | – | C (C denotes ≤5-fold) | > 2000 nM
8 | Cc1cc([C@@H](C)Nc2ccccc2C(=O)O)c2nc(-c3cc(C)c4[nH]c(=O)[nH]c4c3)cc(=O)n2c1 [Compound 497] | – | – | B (B denotes 20-fold≥value>5-fold) | 500 to 2000 nM
9 | Cc1cc([C@H](C)Nc2ccccc2C(=O)O)c2nc(-c3cccc(C(F)F)c3)cc(=O)n2c1 [Compound 1114] | < 100 nM | – | A (A denotes >20-fold) | –
10 | Cc1cc([C@@H](C)Nc2ccccc2C(=O)O)c2nc(-c3ccc(C4CCOCC4)nc3)c(C)c(=O)n2c1 [Compound 1146] | < 100 nM | – | A (A denotes >20-fold) | –
11 | Cc1cc(C(C)Nc2cccc3c2S(=O)(=O)NC3=O)c2nc(N3Cc4ccccc4C3)cc(=O)n2c1 (centres unmarked) [Compound 998] | – | C (C denotes ≤5-fold) | – | –
12 | Cc1cc([C@H](C)Nc2ccccc2C(=O)O)c2nc(-c3ccc(CC4CCN(C(=O)C5CC5)CC4)c(F)c3)c(C)c(=O)n2c1 [Compound 1315] | – | – | C (C denotes ≤5-fold) | –
13 | Cc1cc([C@@H](C)Nc2ccccc2S(N)(=O)=O)c2nc(N3Cc4cccnc4C3)c(C)c(=O)n2c1 [Compound 1323] | < 100 nM | – | A (A denotes >20-fold) | –
14 | Cc1cc([C@H](C)Nc2ccccc2C(=O)NS(=O)(=O)N(C)C)c2nc(-c3cccc(F)c3)c(C)c(=O)n2c1 [Compound 1347] | – | – | B (B denotes 20-fold≥value>5-fold) | –
15 | Cc1cc([C@H](C)Nc2ccccc2S(N)(=O)=O)c2nc(-c3cccnc3)c(C)c(=O)n2c1 [Compound 1108] | 500 to 2000 nM | – | B (B denotes 20-fold≥value>5-fold) | –
16 | Cc1cc([C@H](C)Nc2ccccc2C(=O)O)c2nc(-c3cnc4c(c3)c(C)cn4C)c(C)c(=O)n2c1 [Compound 1051] | – | C (C denotes ≤5-fold) | – | –
17 | CC(Nc1ccccc1C(=O)O)c1cc(C(F)(F)F)cn2c(=O)cc(N3Cc4ccccc4C3)nc12 (centres unmarked) [Compound 922] | < 100 nM | A (A denotes >20-fold) | – | –
18 | C=CC(=O)Nc1ccc(C(=O)O)c(NC(C)c2cc(C)cn3c(=O)cc(N4Cc5ccccc5C4)nc23)c1 (centres unmarked) [Compound 840] | > 2000 nM | C (C denotes ≤5-fold) | – | –
19 | Cc1cc([C@H](C)Nc2ccccc2)c2nc(-c3cnc4[nH]nc(-c5ccccc5)c4c3)cc(=O)n2c1 [Compound 266] | – | – | C (C denotes ≤5-fold) | > 2000 nM
20 | Cc1cc([C@@H](C)Nc2ccccc2C(=O)O)c2nc(C3CCC(C)(C)CC3)cc(=O)n2c1 [Compound 623, (R)-2-((1-(2-(4,4-dimethylcyclohexyl)-7-methyl-4-oxo-4H-pyrido[1,2-a]pyrimidin-9-yl)ethyl)amino)benzoic acid] | – | – | A (A denotes >20-fold) | < 100 nM
21 | Cc1cc(C(C)Nc2ccc(F)cc2C(=O)O)c2nc(-c3cccc(F)c3)c(C)c(=O)n2c1 (centres unmarked) [Compound 1238] | < 100 nM | – | A (A denotes >20-fold) | –
22 | Cc1cc(C(C)Nc2ccccc2C(=O)O)c2nc(-c3ccc4[nH]c(=O)[nH]c4c3)cc(=O)n2c1 (centres unmarked) [Compound 514] | – | – | B (B denotes 20-fold≥value>5-fold) | 500 to 2000 nM

Row | SMILES | IC50 (EGF stimulation) | T47D pAKT S473 HTRF IC50 (H1047R): T47D (H1047R) selectivity over SKBR3 (WT) [1] | T47D pAKT S473 HTRF IC50 (H1047R): T47D (H1047R) selectivity over SKBR3 (WT) [2] | IC50 [3]
23 | Cc1cc([C@@H](C)Nc2ccccc2C(=O)O)c2nc(-c3ccc(F)c(C)c3)c(C)c(=O)n2c1 [Compound 1022] | < 100 nM | A (A denotes >20-fold) | – | –
24 | Cc1cc([C@H](C)Nc2ccccc2C(=O)O)c2nc(-c3ccc(C4CN(C)C4)nc3)c(C)c(=O)n2c1 [Compound 1343] | – | – | C (C denotes ≤5-fold) | –
25 | Cc1cc(C(C)Nc2ccccc2C(=O)O)c2nc(N3CCN(CCC(N)=O)CC3)cc(=O)n2c1 (centres unmarked) [Compound 551] | – | – | C (C denotes ≤5-fold) | > 2000 nM
26 | Cc1cc([C@@H](C)Nc2ccccc2C(=O)O)c2nc(-c3cnc4c(c3)c(C)c(C)n4C)c(C)c(=O)n2c1 (single isomer, unassigned) [Compound 804] | < 100 nM | A (A denotes >20-fold) | – | –
27 | Cc1cc([C@@H](C)Nc2ccccc2C(=O)O)c2nc(-c3ccc(Cl)cc3)c(C)c(=O)n2c1 (single isomer, unassigned) [Compound 963] | < 100 nM | A (A denotes >20-fold) | – | –
28 | Cc1cc([C@@H](C)Nc2ccccc2C(=O)O)c2nc(C)cc(=O)n2c1 [Compound 178] | – | – | C (C denotes ≤5-fold) | –
29 | CC(Nc1ccccc1C(=O)O)c1cc(C(F)(F)F)cn2c(=O)cc(N3C[C@@H](C)O[C@@H](C)C3)nc12 (some centres unmarked) [Compound 898] | – | A (A denotes >20-fold) | – | –
30 | Cc1cc(C(C)Oc2ccccc2C2(O)CS(=O)(=O)C2)c2nc(-c3cccc(F)c3)c(C)c(=O)n2c1 (centres unmarked) [Compound 1382] | – | – | A (A denotes >20-fold) | –
31 | Cc1cc([C@H](C)Nc2ccccc2C(=O)O)c2nc(-c3ccc4c(C)nn(C)c4c3)cc(=O)n2c1 [Compound 820] | – | C (C denotes ≤5-fold) | – | –
32 | Cc1cc([C@H](C)Nc2ccccc2C(=O)O)c2nc(-c3cnc(C4CCOCC4)nc3)c(C)c(=O)n2c1 [Compound 1297] | > 2000 nM | – | C (C denotes ≤5-fold) | –
33 | Cc1cc([C@@H](C)Nc2ccccc2C(=O)O)c2nc(-c3cccc(F)c3)c(C)c(=O)n2c1 (single isomer, unassigned) [Compound 969] | < 100 nM | A (A denotes >20-fold) | – | –
34 | Cc1cc([C@@H](C)Nc2ccccc2C(=O)O)c2nc(N3CCC(C)CC3)cc(=O)n2c1 [Compound 359] | – | – | A (A denotes >20-fold) | < 100 nM
35 | Cc1cc([C@@H](C)Nc2ccccc2C(=O)O)c2nc(-c3ccc4c(c3)c(C)cn4C)cc(=O)n2c1 [Compound 797] | > 2000 nM | C (C denotes ≤5-fold) | – | –
36 | Cc1cc([C@H](C)Nc2ccccc2C(=O)O)c2nc(-c3cccnc3)c(C)c(=O)n2c1 [Compound 950] | > 2000 nM | C (C denotes ≤5-fold) | – | –
37 | Cc1cc([C@@H](C)Nc2ccccc2C(=O)O)c2nc(-c3ccc4sc(=O)[nH]c4c3)cc(=O)n2c1 (single isomer, unassigned) [Compound 593] | – | – | A (A denotes >20-fold) | < 100 nM
38 | Cc1cc(C(C)Nc2ccccc2C(=O)O)c2nc(-c3ccc4c(c3)c(C#N)nn4C3CC3)c(C)c(=O)n2c1 (centres unmarked) [Compound 1026] | 100 to 500 nM | A (A denotes >20-fold) | – | –
39 | Cc1cc([C@@H](C)Nc2ccccc2C(=O)O)c2nc(N3C[C@@H](C)O[C@@H](C)C3)cc(=O)n2c1 [Compound 319] | – | – | A (A denotes >20-fold) | 100 to 500 nM
40 | Cc1cc([C@H](C)Nc2ccccc2C(=O)O)c2nc(N3Cc4ccccc4C3)c(C#N)c(=O)n2c1 [Compound 1208] | 100 to 500 nM | – | A (A denotes >20-fold) | –
41 | Cc1cc(C(C)Nc2ccccc2C(=O)O)c2nc(-c3ccc(CN4CCN(C(=O)C5CC5)CC4)c(F)c3)cc(=O)n2c1 (single isomer, unassigned) [Compound 420] | – | – | A (A denotes >20-fold) | 100 to 500 nM
42 | Cc1cc([C@H](C)Nc2ccccc2-c2ccnnc2)c2nc(-c3ccc4c(C)cn(C)c4c3)c(C)c(=O)n2c1 [Compound 1134] | 500 to 2000 nM | – | B (B denotes 20-fold≥value>5-fold) | –
43 | Cc1cc(C(C)Nc2ccccc2S(N)(=O)=O)c2nc(-c3cccnc3)c(C3CC3)c(=O)n2c1 (centres unmarked) [Compound 1261] | 100 to 500 nM | – | A (A denotes >20-fold) | –
